In the NIST ThermoML archive (doi:10.1016/j.jct.2012.03.025):

Experiment: mn = molality of the nth substance listed, in mol/kg
Conditions: 101 kPa, Liquid; for speed of sound: Sing-around technique in a fixed-path interferometer; for mass density: Vibrating tube method

CCCCn1cc[n+](C)c1.F[B-](F)(F)F [1-butyl-3-methylimidazolium tetrafluoroborate] + O
Conditions	mass density, 288.15 K [kg/m3]	mass density, 293.15 K [kg/m3]	mass density, 298.15 K [kg/m3]	mass density, 303.15 K [kg/m3]	mass density, 308.15 K [kg/m3]	speed of sound, 288.15 K [m/s]	speed of sound, 293.15 K [m/s]	speed of sound, 298.15 K [m/s]	speed of sound, 303.15 K [m/s]	speed of sound, 308.15 K [m/s]
m1 = 0.0514	1001.13	1000.19	998.93	997.535	995.822	1471.9	1487.3	1500.9	1512.8	1523
m1 = 0.1056	1003.19	1002.21	1000.85	999.439	997.645	1476.9	1492	1505	1516.2	1526
m1 = 0.1559	1005.1	1004.06	1002.6	1001.17	999.334	1481.5	1495.9	1508.5	1519.5	1528.8
m1 = 0.201	1006.76	1005.67	1004.18	1002.7	1000.82	1485.3	1499.3	1511.3	1522.1	1531.1
m1 = 0.2573	1008.83	1007.69	1006.13	1004.58	1002.65	1490	1503.4	1515	1525.2	1533.7
m1 = 0.3001	1010.36	1009.21	1007.59	1005.98	1004.05	1493.2	1506.2	1517.5	1527.3	1535.6
m1 = 0.3504	1012.17	1010.97	1009.26	1007.63	1005.66	1496.9	1509.5	1520.4	1529.8	1537.7
m1 = 0.4093	1014.26	1012.98	1011.22	1009.47	1007.54	1501.1	1513.2	1523.6	1532.6	1540.1
m1 = 0.4506	1015.7	1014.4	1012.58	1010.78	1008.78	1504	1515.6	1525.8	1534.5	1541.7
m1 = 0.508	1017.7	1016.36	1014.5	1012.56	1010.59	1507.4	1519	1528.5	1536.8	1543.7
